What is called IC50 is the midpoint of a concentration-inhibition curve. By CC50 is commonly meant the concentration giving 50% cytotoxicity. One may read the ED50 as the dose that gives a 50% effect, or the effect in half of the subjects.

For data set [1], the system named is Leishmania mexicana. Description: Antiprotozoal activity against Leishmania mexicana MHOM/MX/ISETGS incubated for 72 hrs by Neubauer chamber based cell counting method. The class given is functional.
Data set [2] in a line: Selectivity index, ratio of CC50 for cytotoxicity against African green monkey Vero cells to IC50 for Trichomonas vaginalis GT3.
A short description of data set [3]: Selectivity index, ratio of CC50 for cytotoxicity against African green monkey Vero cells to IC50 for Giardia intestinalis Giardia intestinalis IMSS:0696:1 (genotype A).
Data set [4] is described as follows: Cytotoxicity against African green monkey Vero cells incubated for 24 to 48 hrs by SRB assay. To be noted: chlorocebus sabaeus. The class given is cell-based. For orientation: The SRB assay estimates cell density from bound dye.
Data set [5] concerns Giardia intestinalis. Kind of data set: Antigiardial activity against Giardia intestinalis WB trophozoites infected in CD1 mouse dosed intragastrically 6 days after infection and measured 48 hrs post dose. To be noted: Giardia duodenalis, po. The class given is functional.
Data set [6] relates to Giardia intestinalis. Kind of data set: Potency index, ratio of ED50 for nitazoxanide to ED50 for test compound for antigiardial activity against Giardia intestinalis WB trophozoites infected in CD1 mouse dosed intragastrically 6 days after infection and measured 48 hrs post dose. The class given is functional, Giardia duodenalis.
Data set [7] has as its system Trichomonas vaginalis. Kind of data set: Antiprotozoal activity against Trichomonas vaginalis GT3 trophozoites incubated for 48 hrs. The class given is functional. The following applies: GT3, 48 h.
For data set [8], the system named is Giardia intestinalis. Description: Antiprotozoal activity against Giardia intestinalis IMSS:0696:1 (genotype A) trophozoites incubated for 48 hrs. Type of data set: functional. To be noted: Giardia duodenalis.
Data set [9] in a line: Selectivity index, ratio of CC50 for cytotoxicity against African green monkey Vero cells to IC50 for Leishmania mexicana MHOM/MX/ISETGS. The following applies: read-out: Ratio CC50/IC50. The class given is toxicity, cell-based.
In data set [10] the test system is Trichomonas vaginalis. Description: Potency index, ratio of IC50 for metronidazole to IC50 for test compound for antiprotozoal activity against Trichomonas vaginalis GT3 trophozoites incubated for 48 hrs. The class given is functional.
For data set [11], the system named is Trichomonas vaginalis. Description: Potency index, ratio of IC50 for nitazoxanide to IC50 for test compound for antiprotozoal activity against Trichomonas vaginalis GT3 trophozoites incubated for 48 hrs. Type of data set: functional.
Data set [12] has as its system Giardia intestinalis. Description: Potency index, ratio of ED50 for metronidazole to ED50 for test compound for antigiardial activity against Giardia intestinalis WB trophozoites infected in CD1 mouse dosed intragastrically 6 days after infection and measured 48 hrs post dose. The class given is functional, Giardia duodenalis.
For data set [13], the system named is Leishmania amazonensis. Description: Antiprotozoal activity against Leishmania amazonensis IFLA/BR/67/PH-8 incubated for 72 hrs by Neubauer chamber based cell counting method. The class given is functional. To be noted: IFLA/BR/67/PH-8, 72 h.
In data set [14] the test system is Trypanosoma cruzi. Description: Antiprotozoal activity against Trypanosoma cruzi MHOM/MX/1994/Ninoa incubated for 72 hrs by Neubauer chamber based cell counting method. Type of data set: functional.
For data set [15], the system named is Trypanosoma cruzi. Kind of data set: Potency index, ratio of IC50 for benznidazole to IC50 for test compound for antiprotozoal activity against Trypanosoma cruzi MHOM/MX/1994/Ninoa incubated for 72 hrs by Neubauer chamber based cell counting method. Type of data set: functional.
In data set [16] the test system is Leishmania amazonensis. Kind of data set: Potency index, ratio of IC50 for pentamidine to IC50 for test compound for antiprotozoal activity against Leishmania amazonensis IFLA/BR/67/PH-8 incubated for 72 hrs by Neubauer chamber based cell counting method. The class given is functional.
Data set [17] has as its system Giardia intestinalis. Kind of data set: Potency index, ratio of IC50 for nitazoxanide to IC50 for test compound for antiprotozoal activity against Giardia intestinalis IMSS:0696:1 (genotype A) trophozoites incubated for 48 hrs. The class given is functional, Giardia duodenalis.
Data set [18] relates to Leishmania amazonensis. Description: Potency index, ratio of IC50 for nitazoxanide to IC50 for test compound for antiprotozoal activity against Leishmania amazonensis IFLA/BR/67/PH-8 incubated for 72 hrs by Neubauer chamber based cell counting method. Type of data set: functional.
Data set [19] relates to Giardia intestinalis. Description: Potency index, ratio of IC50 for metronidazole to IC50 for test compound for antiprotozoal activity against Giardia intestinalis IMSS:0696:1 (genotype A) trophozoites incubated for 48 hrs. The class given is functional, Giardia duodenalis.

Values joined by “and” are separate entries in the source; they are usually repeats but may differ in a detail not shown here. Equal entries are not always repeated.

As for `CC(C)(Oc1ccc(Cl)cc1)C(=O)Nc1ncc([N+](=O)[O-])s1`, the IC50 in data set [1] is 16.6 µM; in data set [7], 0.032 µM; in [8], 0.172 µM; in [13] it was 3.43 µM; in data set [14] it was 12.2 µM. Besides, the “Ratio CC50/IC50” value is recorded as 686 in [2] and 127 in [3]. In [4], this molecule displayed a CC50 of 22 µM. Besides, the ED50 in [5] is 0.00384 mg/kg and 0.0113 µmol/kg. In addition, the “Ratio ED50” value in data set [6] and in data set [12] was 50 - 300 throughout. Moreover, in data set [9], the selectivity ratio worked out at 6. Moreover, the “Ratio IC50” value came to 10 in [10], 2 in [11] and 2 in [15].

In the case of `O=[N+]([O-])c1cncs1`, the IC50 in data set [1] was greater than 50 µM; in data set [7], 52.9 µM; in [8], 29.6 µM; in data set [13], greater than 50 µM; in [14] it was greater than 50 µM. Also, the CC50 in [4] was 441 µM.

On to `COc1ccc2c(c1)c(CC(=O)Nc1ncc([N+](=O)[O-])s1)c(C)n2C(=O)c1ccc(Cl)cc1`, for which the IC50 in data set [1] was 6.77 µM; in data set [7] it was 0.134 µM; in data set [8], 0.145 µM; in [13], 0.88 µM; in data set [14], greater than 50 µM. The “Ratio CC50/IC50” value in data set [2] came to 96; in [3] it was 89. The “Ratio IC50” value in [16] worked out at 16; in data set [17] it was 8; in data set [18], 8; in data set [19], 38. Moreover, the CC50 in [4] came to 13 µM. Further, in data set [5], the ED50 is 0.00171 mg/kg and 0.00353 µmol/kg. Moreover, the “Ratio ED50” value was determined as 1015 in data set [6] and 321 in [12]. The selectivity ratio in data set [9] was determined as 15.

Consider `COc1ccc2cc([C@H](C)C(=O)Nc3ncc([N+](=O)[O-])s3)ccc2c1`, for which the IC50 in [1] was 25.5 µM; in [7], 0.162 µM; in data set [8], 0.221 µM; in [13], 3.64 µM; in [14] it was 12.9 µM. The “Ratio CC50/IC50” value worked out at 1112 in data set [2] and 815 in [3]. This molecule also came in with a CC50 in data set [4] of 180 µM. The ED50 in [5] is 0.00766 mg/kg and 0.0215 µmol/kg. In addition, the “Ratio ED50” value in data set [6] and in data set [12] was 50 - 300 each time. Besides, the selectivity ratio in [9] came out at 49. Moreover, in [15], the “Ratio IC50” value is recorded as 2.

As to `O=C(Cc1ccccc1Nc1c(Cl)cccc1Cl)Nc1ncc([N+](=O)[O-])s1`, the 50% inhibitory concentration (IC50) in data set [1] was determined as 6.12 µM; in [7] it was 0.218 µM; in [8], 0.147 µM; in data set [13] it was 1.89 µM; in data set [14], 15.7 µM. Also, the “Ratio IC50” value in data set [17] was determined as 8; in data set [19] it was 38; in data set [15], 2.

For the molecule `CC(C)Cc1ccc(C(C)C(=O)Nc2ncc([N+](=O)[O-])s2)cc1` (racemic), the IC50 in data set [1] stood at 17.1 µM; in data set [7], 0.045 µM; in data set [8], 0.227 µM; in [13], 6.42 µM; in [14], 15 µM. For the same molecule, the “Ratio CC50/IC50” value in data set [2] is 4475; in [3] it was 887. Further, the CC50 in data set [4] worked out at 201 µM. In data set [5], the ED50 is 0.00399 mg/kg and 0.012 µmol/kg. Besides, the “Ratio ED50” value in [6] and in [12] was 50 - 300 each time. Besides, the selectivity ratio in [9] was 31. Besides, the entries for the “Ratio IC50” value in data set [10], in data set [11] and in data set [15] were 7, 1.7 and 2, respectively.

With `O=C(Cn1ccnc1[N+](=O)[O-])NCc1ccccc1` [BENZNIDAZOLE], the IC50 in data set [1] and in [13] was greater than 50 µM throughout.

For the molecule `Cc1ncc([N+](=O)[O-])n1CCO` [METRONIDAZOLE], the IC50 in data set [1], in data set [13] and in [14] was greater than 50 µM in each case. Also, the “Ratio CC50/IC50” value in data set [2] is listed as 1134; in [3] it was 72. Further, the selectivity ratio in [9] is less than 7.

For `CCCCCCCCCCCCCCCCOP(=O)([O-])OCC[N+](C)(C)C` [MILTEFOSINE], the 50% inhibitory concentration (IC50) in data set [1] came out at 2.03 µM; in [7], 20 µM; in data set [8], 20 µM; in data set [13], 1.35 µM; in [14] it was 25.2 µM. Also, in data set [4], the midpoint of cytotoxicity, the CC50, lay at 0.12 µM.

`CC1CS(=O)(=O)CCN1/N=C/c1ccc([N+](=O)[O-])o1` (stereo unspecified) [NIFURTIMOX]: the results for the IC50 in data set [1] and in data set [14] were 3.1 µM and 7.45 µM, respectively.

On to `CC(=O)Oc1ccccc1C(=O)Nc1ncc([N+](=O)[O-])s1` [NITAZOXANIDE], for which the ED50 in [5] was 1.1 mg/kg and 3.58 µmol/kg. Besides, in data set [9], the selectivity ratio was 115. Besides, the “Ratio IC50” value in data set [15] is 2.

For `N=C(N)c1ccc(OCCCCCOc2ccc(C(=N)N)cc2)cc1` [PENTAMIDINE], the “Ratio CC50/IC50” value in data set [2] is reported as 12.3; in data set [3], 11. Further, the selectivity ratio in data set [9] amounted to 3.2. The same molecule displayed an IC50 in data set [14] greater than 50 µM.
